Some test systems named below: A498; A549; CAKI-1; COLO 205; DU-145; EKVX; HCT-15; HOP-62; HOP-92; K562; KM12; Malme-3M; NCI-H226; NCI-H460; OVCAR-4; RPMI-8226; SF-295; SR; UACC-257; UACC-62.
Common to all, as to assay: DTP human tumour cell line panel, 48 h

Experimental findings from ChEMBL document CHEMBL1201862, “PubChem BioAssay data set” (2004) are described below.

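Values below derive from 48-hour exposures of cells grown in 96-well plates, with endpoints linearly interpolated between the two concentrations bracketing the appropriate inhibition level. Abbreviation: GI50, concentration required for 50% inhibition of growth.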 Activity calls are given as the source filed them. Rule as the data show it: active = GI50 up to about 1.1 µM and inactive = higher.

Regarding `COc1ccc2c(c1)C(=O)CCc1cc(OC)c(OC)c(OC)c1-2`, the GI50 with A498 is 0.0504 µM (active); with A549, 0.0687 µM (active); with CAKI-1, 0.127 µM (active); in the assay on COLO 205, 0.0512 µM (active); with DU-145 it was 0.0335 µM (active); in the assay with EKVX, 0.045 µM (active). For the same compound, the GI50 was 0.0359 µM in the assay on HCT-15; 0.0662 µM (active) with HOP-62; 0.135 µM (active) with HOP-92; 0.0366 µM (active) with K562; 0.0298 µM (active) in the assay on KM12; 0.0304 µM (active) in the assay on Malme-3M. Besides, the GI50 in the assay on NCI-H226 was 0.0258 µM (active); in the assay on NCI-H460, 0.0413 µM (active); with OVCAR-4, 0.0582 µM (active); in the assay on RPMI-8226, 0.0631 µM (active); in the assay on SF-295, 0.0384 µM (active); in the assay on SR, 0.0354 µM (active). The GI50 was < 0.01 µM (active) with UACC-257 and 0.075 µM (active) in the assay with UACC-62.
In the case of `OCCSCC(O)Cn1cnc2c(O)nc(Nc3ccccc3)nc21` (configuration not stated), the GI50 in the assay with A498, in the assay on A549, in the assay on CAKI-1, in the assay with COLO 205, with DU-145 and with EKVX was > 100 µM (inactive) throughout. Further, the GI50 in the assay on HCT-15 was greater than 100 µM; in the assay on HOP-62, > 100 µM (inactive); in the assay on HOP-92, > 100 µM (inactive); in the assay with KM12 it was > 100 µM (inactive); in the assay on Malme-3M, > 100 µM (inactive); in the assay on NCI-H226, > 100 µM (inactive). The GI50 in the assay with NCI-H460, in the assay with OVCAR-4, in the assay on RPMI-8226, with SF-295, with SR and in the assay with UACC-257 was > 100 µM (inactive) throughout. Besides, the GI50 in the assay on UACC-62 was > 100 µM (inactive).
Consider `C=CCN1CN(C2CCCCC2)CSC1=S`, for which the GI50 was 14.3 µM (inactive) in the assay with A498; 16.5 µM (inactive) in the assay on A549; 4.72 µM (inactive) with CAKI-1; 3.32 µM (inactive) in the assay with COLO 205; 2.23 µM (inactive) in the assay on DU-145; 15.6 µM (inactive) with EKVX. The GI50 was 2.54 µM with HCT-15; 5.57 µM (inactive) with HOP-62; 5.18 µM (inactive) in the assay on HOP-92; 0.652 µM (active) with K562; 3.19 µM (inactive) in the assay with KM12; 3.16 µM (inactive) in the assay on Malme-3M. Also, the GI50 with NCI-H226 was 14.6 µM (inactive); with NCI-H460, 4.12 µM (inactive); in the assay with OVCAR-4 it was 12.8 µM (inactive); with RPMI-8226 it was 1.04 µM (active); with SF-295 it was 28.4 µM (inactive); in the assay with SR, 0.148 µM (active). The GI50 with UACC-257 was 3.68 µM (inactive); with UACC-62 it was 5.86 µM (inactive).
On to `N#Cc1cc(C#N)c(N)nc1N`, for which the GI50 in the assay on A498 was > 100 µM (inactive); in the assay on A549, > 100 µM (inactive); in the assay with CAKI-1 it was > 100 µM (inactive); in the assay on COLO 205 it was > 100 µM (inactive); in the assay with DU-145 it was 43.6 µM (inactive); with EKVX, > 100 µM (inactive). Moreover, the GI50 is greater than 100 µM with HCT-15; > 100 µM (inactive) with HOP-62; > 100 µM (inactive) in the assay on HOP-92; > 100 µM (inactive) with K562; > 100 µM (inactive) in the assay with KM12; > 100 µM (inactive) with Malme-3M. Besides, the GI50 in the assay on NCI-H226 is > 100 µM (inactive); in the assay with NCI-H460 it was > 100 µM (inactive); in the assay on OVCAR-4, > 100 µM (inactive); in the assay with RPMI-8226 it was > 100 µM (inactive); in the assay on SF-295 it was > 100 µM (inactive); with SR it was 19.1 µM (inactive). Moreover, the GI50 with UACC-257 and in the assay on UACC-62 was > 100 µM (inactive) in each case.
As for `CCOC(=O)C1=C(C)N(Cc2ccc(Cl)cc2Cl)C2(O)C=CC(=O)C3C(=O)N(c4ccccc4)C(=O)C132` (configuration not stated), the GI50 with A498 is 4.57 µM (inactive); in the assay with A549, 2.11 µM (inactive); with CAKI-1 it was 3.02 µM (inactive); in the assay on COLO 205, 1.7 µM (inactive); in the assay on DU-145, 1.36 µM (inactive); with EKVX it was 1.89 µM (inactive). The GI50 is 1.52 µM in the assay with HCT-15; 2.87 µM (inactive) in the assay on HOP-62; 1.78 µM (inactive) in the assay on HOP-92; 0.659 µM (active) with K562; 1.71 µM (inactive) in the assay on KM12; 2.09 µM (inactive) in the assay on Malme-3M. Further, the GI50 in the assay with NCI-H226 was 1.54 µM (inactive); with NCI-H460, 2.1 µM (inactive); in the assay with OVCAR-4 it was 1.51 µM (inactive); in the assay with RPMI-8226, 0.308 µM (active); in the assay on SF-295 it was 2.88 µM (inactive); with SR, 0.51 µM (active). For the same compound, the GI50 is 2.2 µM (inactive) in the assay on UACC-257 and 1.63 µM (inactive) in the assay with UACC-62.
On to `Cc1cn(C2CC(O)C(Cn3nncc3Cn3ccc(=O)[nH]c3=O)O2)c(=O)[nH]c1=O` (configuration not stated), for which the GI50 in the assay with A498, in the assay with A549, in the assay on CAKI-1, in the assay on COLO 205, in the assay with DU-145 and in the assay with EKVX was > 100 µM (inactive) in each case. Further, the GI50 is greater than 100 µM in the assay on HCT-15; > 100 µM (inactive) in the assay with HOP-62; > 100 µM (inactive) with HOP-92; > 100 µM (inactive) in the assay with KM12; > 100 µM (inactive) with Malme-3M; > 100 µM (inactive) in the assay on NCI-H226. The GI50 with OVCAR-4, in the assay with RPMI-8226, in the assay on SF-295, in the assay on SR, in the assay with UACC-257 and in the assay on UACC-62 was > 100 µM (inactive) throughout.
`CNc1ccc(Cl)cc1C(=O)N1CCC[C@H]1CO`: the GI50 with A498, in the assay with A549, with CAKI-1, with COLO 205, with DU-145 and in the assay on EKVX was > 100 µM (inactive) throughout. The GI50 in the assay on HCT-15 was greater than 100 µM; in the assay on HOP-62, > 100 µM (inactive); in the assay with HOP-92, > 58.6 µM (inactive); in the assay with K562 it was > 100 µM (inactive); in the assay with KM12, > 100 µM (inactive); in the assay with Malme-3M, > 100 µM (inactive). In addition, the GI50 with NCI-H226 is > 96.4 µM (inactive); in the assay with NCI-H460, > 100 µM (inactive); with OVCAR-4 it was > 100 µM (inactive); in the assay with RPMI-8226, > 100 µM (inactive); with SF-295 it was > 100 µM (inactive); in the assay on SR it was 80.9 µM (inactive). Also, the GI50 in the assay with UACC-257 and in the assay with UACC-62 was > 100 µM (inactive) each time.
For the compound `CCN(CC)c1ncnc2c1ncn2CCNC(CO)(CO)CO`, the GI50 in the assay with A498, in the assay on A549, with CAKI-1, with COLO 205, in the assay with DU-145 and with EKVX was > 100 µM (inactive) in each case. The GI50 with HCT-15 is greater than 100 µM; in the assay with HOP-62, > 100 µM (inactive); in the assay with HOP-92, > 100 µM (inactive); in the assay with K562 it was > 100 µM (inactive); in the assay with KM12, > 100 µM (inactive); with Malme-3M, > 100 µM (inactive). Moreover, the GI50 in the assay on NCI-H226, with NCI-H460, with OVCAR-4, with RPMI-8226, in the assay with SF-295 and in the assay with SR was > 100 µM (inactive) in each case. For the same compound, the GI50 in the assay with UACC-257 and with UACC-62 was > 100 µM (inactive) in each case.
Take `Oc1cccc2ccc(Br)nc12`: the GI50 with A498, with A549, in the assay with CAKI-1, with COLO 205, with DU-145 and with EKVX was > 100 µM (inactive) each time. Further, the GI50 is greater than 100 µM in the assay on HCT-15; > 100 µM (inactive) with HOP-62; > 100 µM (inactive) in the assay on HOP-92; > 100 µM (inactive) in the assay with K562; > 100 µM (inactive) in the assay with KM12; > 100 µM (inactive) in the assay with Malme-3M. Further, the GI50 with NCI-H226 is > 100 µM (inactive); with NCI-H460, > 100 µM (inactive); in the assay with OVCAR-4 it was > 100 µM (inactive); in the assay on RPMI-8226, 97.9 µM (inactive); in the assay on SF-295 it was > 100 µM (inactive); with SR it was 62.4 µM (inactive). Moreover, the GI50 with UACC-257 and in the assay with UACC-62 was > 100 µM (inactive) in each case.
Turning to `O/N=N/c1ccccn1.OCC1OC2OC3C(CO)OC(OC4C(CO)OC(OC5C(CO)OC(OC6C(CO)OC(OC7C(CO)OC(OC1C(O)C2O)C(O)C7O)C(O)C6O)C(O)C5O)C(O)C4O)C(O)C3O` (configuration not stated), the GI50 in the assay on A498, in the assay on A549, in the assay on CAKI-1, in the assay with COLO 205, in the assay with DU-145 and in the assay with EKVX was > 100 µM (inactive) in each case. Also, the GI50 in the assay on HCT-15 was greater than 100 µM; with HOP-62, > 100 µM (inactive); in the assay with HOP-92, > 100 µM (inactive); with K562, 48.4 µM (inactive); with KM12, 82.4 µM (inactive); with Malme-3M it was 61 µM (inactive). In addition, the GI50 in the assay with NCI-H226 was > 100 µM (inactive); in the assay on NCI-H460 it was 68.7 µM (inactive); in the assay with OVCAR-4, > 100 µM (inactive); in the assay on RPMI-8226, 27.3 µM (inactive); with SF-295, > 100 µM (inactive); with SR, 0.583 µM (active). For the same compound, the GI50 was 71.1 µM (inactive) in the assay on UACC-257 and 47.9 µM (inactive) with UACC-62.
